Test [1] concerns Normal Human Lung Fibroblasts (NHLF). The experiment in a line: TGFβ1-induced expression of α-SMA protein in human lung fibroblasts (ELISA). The format is cell-based. The following applies: concentration of 1 μM; TGFβ1 1 ng/ml, 48 hours. Here is the method:
NTZ (A) or TZ (B) was added to serum-deprived lung fibroblasts (NHLF) 1 hour before the activation with TGFβ1 (1 ng/ml). After 48 hours of incubation, the expression of α-SMA was measured by ELISA. The obtained values were transformed into percentage inhibition over TGFβ1 control. Data are presented as mean (triplicates)±standard deviation (SD). Statistical analyses were performed by one-way ANOVA followed by Bonferroni post-hoc tests, using Sigma Plot 11.0 software. [*: p<0.05; **: p<0.01; ***: p<0.001 (comparison versus TGFβ1 1 ng/mL group)].
The Normal Human Lung Fibroblasts (NHLF) (Lonza) were cultured in Fibroblast Basal Medium (FBM) (Lonza cat # CC-3131) that was supplemented with FGM-2 SingleQuots™ Kit (Lonza cat # CC-3132). The complete medium contains 2% fetal bovine serum. For the activation experiments with TGFβ1, the NHLF were plated at a density of 5×10^3 cells per well in 96-well plates. The next day, cell-culture medium was removed, and cells were washed with PBS (Invitrogen cat #14190). NHLF were deprived for 24 hours in serum-free, insulin-free and rhFGF-B-free medium. […]
(§1) The level of α-SMA was measured using a Sandwich ELISA. […]

For test [2], the system named is Human Intestinal Myofibroblasts (InMyoFib). Briefly: TGFβ1-induced expression of α-SMA protein in human intestinal fibroblasts (ELISA). The following applies: concentration of 1 μM; TGFβ1 3 ng/ml, 48 hours. In kind it is cell-based. Here is the method: NTZ (A) or TZ (B) were added to serum-deprived intestinal fibroblasts (InMyoFib) 1 hour before the activation with TGFβ1 (3 ng/ml). After 48 hours of incubation, the expression of α-SMA was measured by ELISA. The obtained values were transformed into percentage inhibition over TGFβ1 control. Data are presented as mean (triplicates)±standard deviation (SD). Statistical analyses were performed by one-way ANOVA followed by Bonferroni post-hoc tests, using Sigma Plot 11.0 software. [*: p<0.05; **: p<0.01; ***: p<0.001 (comparison versus TGFβ1 3 ng/mL group)].
The Human Intestinal Myofibroblasts (InMyoFib) (Lonza) were cultured in Smooth Muscle Cell Basal Medium (SmBM-2™) (Lonza cat # CC-3181) that was supplemented with SmGM™-2 BulletKit™ (Lonza cat # CC-4149). The complete medium contains 5% fetal bovine serum. For the activation experiments with TGFβ1, the inMyoFib were plated at a density of 10×10^3 cells per well in 96-well plates. The next day, cell-culture medium was removed, and cells were washed with PBS (Invitrogen cat #14190). InMyoFib were deprived for 24 hours in serum-free, insulin-free and rhFGF-B-free medium. […]
as §1
(ELISA stands for enzyme-linked immunosorbent assay.)

Structures are written as SMILES.

From patent publication US10905680B2, “Methods of treatment for cholestatic and fibrotic diseases” (Genfit, priority 2016, dated 2021) come the findings set out here.

Take `O=C(Nc1ncc([N+](=O)[O-])s1)c1ccccc1O` [TZ, 2-hydroxy-N-(5-nitro-2-thiazolyl)benzamide]: the “antifibrotic effects (α-SMA) in normal human lung fibroblasts” value in test [1] is reported as “significant antifibrotic effects”. Besides, in test [2], the “antifibrotic effects (α-SMA) in human Intestinal myofibroblasts” value was “significant antifibrotic effects”.
